Assay results published in patent publication US20080187935A1, “Homo and Heterodimer Proteins of the Abcg Family, Methods For Detection and Screening Modulators Thereof” (priority 2004, published 2008).

How the values were obtained:
human ABCG1 = target: T1, human ABCG1 (Homo sapiens, UniProt P45844); assay: vanadate-sensitive ATPase activity of ABCG1 in isolated Sf9 membranes; format: biochemical; details: for effect on ABCG1 ATPase activity (in words): Sf9 membranes, 3.3 mM MgATP
T1 construct: made in house; host or cells: Sf9 insect cells (baculovirus), isolated membranes
Experimental: (§1) Recombinant baculoviruses carrying transporter cDNA were generated with BaculoGold Transfection Kit (Pharmingen), in accordance with the manufacturer's protocol. The titer of virus supernatants were determined in order to express the same amount of each proteins, Sf9 (Spodoptera frugiperda ovarian) cells (Invitrogen) were infected and cultured according to the procedures described previously (19). Briefly, about 3×10^7 cells were infected with 3 ml of virus supernatant in case of homodimer expression and 1.5-1.5 ml of virus supernatants in case of heterodimer expression. The virus-infected Sf9 cells were cultured in T150 culture flasks with 30 ml of medium for the times indicated. The cells were harvested by scraping them into Tris-mannitol buffer (50 mM Tris, pH 7.0, with HCl, containing 300 mM mannitol and 0.5 mM phenylmethylsulfonyl fluoride).
For membrane preparation the cells were lysed and homogenized using a glass-Teflon tissue homogenizer in TMEP (50 mM Tris, pH 7.0, with HCl, containing 50 mM mannitol, 2 mM EGTA-Tris, 10 µg/ml leupeptin, 8 µg/ml aprotinin, 0.5 mM phenylmethylsulfonyl fluoride, and 2 mM dithiothreitol), and the undisrupted cells and nuclear debris were removed by centrifugation at 500×g for 10 min. The supernatant fluid was then centrifuged for 60 min at 100,000×g and the pellet containing the membranes resuspended in TMEP at a protein concentration of 2-3 mg/ml. All procedures were carried out at 4° C., and the membranes were stored at −70° C.
(§2) The ATPase activity of the isolated Sf9 cell membranes was estimated by measuring inorganic phosphate liberation. Membrane suspensions (about 20 μg of membrane protein, as determined by a modified Lowry method) were incubated at 37° C. for 20-min in 0.15 ml of a medium containing 40 mM MOPS-Tris (pH 7.0), 0.5 mM EGTA-Tris (pH 7.0), 2 mM dithiothreitol, 50 mM KCl, 1 mM ouabain and 5 mM sodium azide, and the ATPase reaction was started by the addition of 3.3 mM MgATP. The indicated drugs (obtained from Sigma) were added in dimethyl sulfoxide. The final concentration of dimethyl sulfoxide in the assay medium was 1%. […] The reactions were stopped by the addition of 0.1 ml of 5% SDS solution and the amount of inorganic phosphate determined immediately. Inorganic phosphate was measured by colorimetric reaction (19). The points plotted in the figures indicate the means of triplicate determinations.

ABCG2R482G = target: T2, ABCG2R482G (Homo sapiens, UniProt Q9UNQ0, R482G); details: Özvegy C et al., 2001, cited from earlier work
T2 construct: host or cells: Sf9 membranes
T2 sequence (Q9UNQ0 1-655 R482G): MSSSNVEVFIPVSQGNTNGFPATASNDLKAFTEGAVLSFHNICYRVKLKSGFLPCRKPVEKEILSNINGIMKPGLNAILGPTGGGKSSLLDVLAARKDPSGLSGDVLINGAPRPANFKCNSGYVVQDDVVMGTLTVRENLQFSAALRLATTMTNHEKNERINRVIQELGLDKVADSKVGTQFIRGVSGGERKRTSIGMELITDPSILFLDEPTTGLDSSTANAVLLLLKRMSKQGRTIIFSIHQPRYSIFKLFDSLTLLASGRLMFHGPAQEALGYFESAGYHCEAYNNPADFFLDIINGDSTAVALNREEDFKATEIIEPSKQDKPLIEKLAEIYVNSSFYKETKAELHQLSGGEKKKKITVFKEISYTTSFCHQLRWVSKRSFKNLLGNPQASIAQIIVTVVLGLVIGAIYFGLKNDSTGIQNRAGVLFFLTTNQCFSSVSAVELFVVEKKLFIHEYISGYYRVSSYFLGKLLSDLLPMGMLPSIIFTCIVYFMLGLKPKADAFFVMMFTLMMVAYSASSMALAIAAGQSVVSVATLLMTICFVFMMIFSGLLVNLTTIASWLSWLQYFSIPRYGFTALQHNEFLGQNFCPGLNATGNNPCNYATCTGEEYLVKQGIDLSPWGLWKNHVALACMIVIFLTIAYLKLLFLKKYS

ABCG1K124M = target: T3, ABCG1K124M (Homo sapiens, UniProt P45844, K124M); assay: ATPase activity of catalytic site mutant ABCG1K124M in Sf9 membranes; format: biochemical; details: data not shown
T3 construct: made in house; host or cells: Sf9 insect cells (baculovirus), isolated membranes
Experimental: as §1, with “The cells were harvested by scraping them into Tris-mannitol buffer (50 mM Tris, pH 7.0, with HCl, containing 300 mM mannitol and 0.5 mM phenylmethylsulfonyl fluoride).” left out
as §2, with “MgATP.” for “MgATP. The indicated drugs (obtained from Sigma) were added in dimethyl sulfoxide. The final concentration of dimethyl sulfoxide in the assay medium was 1%.”, “The points plotted in the figures indicate the means of triplicate determinations.” left out

human ABCG4 = target: T4, human ABCG4 (Homo sapiens, UniProt Q9H172); assay: vanadate-sensitive ATPase activity of ABCG4 in isolated Sf9 membranes; format: biochemical
T4 construct: made in house; host or cells: Sf9 insect cells (baculovirus), isolated membranes; cDNA from I.M.A.G.E. clone 1537140
Experimental: Recombinant baculoviruses carrying transporter cDNA were generated with BaculoGold Transfection Kit (Pharmingen), in accordance with the manufacturer's protocol. The titer of virus supernatants were determined in order to express the same amount of each proteins, Sf9 (Spodoptera frugiperda ovarian) cells (Invitrogen) were infected and cultured according to the procedures described previously (19). Briefly, about 3×10^7 cells were infected with 3 ml of virus supernatant in case of homodimer expression and 1.5-1.5 ml of virus supernatants in case of heterodimer expression. The virus-infected Sf9 cells were cultured in T150 culture flasks with 30 ml of medium for the times indicated. […] The supernatant fluid was then centrifuged for 60 min at 100,000×g and the pellet containing the membranes resuspended in TMEP at a protein concentration of 2-3 mg/ml. All procedures were carried out at 4° C., and the membranes were stored at −70° C. The ATPase activity of the isolated Sf9 cell membranes was estimated by measuring inorganic phosphate liberation. […] The indicated drugs (obtained from Sigma) were added in dimethyl sulfoxide. The final concentration of dimethyl sulfoxide in the assay medium was 1%. […] The reactions were stopped by the addition of 0.1 ml of 5% SDS solution and the amount of inorganic phosphate determined immediately. Inorganic phosphate was measured by colorimetric reaction (19). […]

ABCG1/ABCG4 = target: T5, ABCG1/ABCG4 (Homo sapiens, UniProt P45844+Q9H172); assay: ATPase activity of co-expressed ABCG1/ABCG4 in Sf9 membranes; format: biochemical; details: various concentrations, data not shown
T5 construct: made in house; host or cells: Sf9 insect cells co-infected with both baculoviruses, isolated membranes
Experimental: as §1, with “The cells were harvested by scraping them into Tris-mannitol buffer (50 mM Tris, pH 7.0, with HCl, containing 300 mM mannitol and 0.5 mM phenylmethylsulfonyl fluoride).” left out
as §2, with “MgATP.” for “MgATP. The indicated drugs (obtained from Sigma) were added in dimethyl sulfoxide. The final concentration of dimethyl sulfoxide in the assay medium was 1%.”, “The points plotted in the figures indicate the means of triplicate determinations.” left out

T4 sequence (Q9H172 whole entry): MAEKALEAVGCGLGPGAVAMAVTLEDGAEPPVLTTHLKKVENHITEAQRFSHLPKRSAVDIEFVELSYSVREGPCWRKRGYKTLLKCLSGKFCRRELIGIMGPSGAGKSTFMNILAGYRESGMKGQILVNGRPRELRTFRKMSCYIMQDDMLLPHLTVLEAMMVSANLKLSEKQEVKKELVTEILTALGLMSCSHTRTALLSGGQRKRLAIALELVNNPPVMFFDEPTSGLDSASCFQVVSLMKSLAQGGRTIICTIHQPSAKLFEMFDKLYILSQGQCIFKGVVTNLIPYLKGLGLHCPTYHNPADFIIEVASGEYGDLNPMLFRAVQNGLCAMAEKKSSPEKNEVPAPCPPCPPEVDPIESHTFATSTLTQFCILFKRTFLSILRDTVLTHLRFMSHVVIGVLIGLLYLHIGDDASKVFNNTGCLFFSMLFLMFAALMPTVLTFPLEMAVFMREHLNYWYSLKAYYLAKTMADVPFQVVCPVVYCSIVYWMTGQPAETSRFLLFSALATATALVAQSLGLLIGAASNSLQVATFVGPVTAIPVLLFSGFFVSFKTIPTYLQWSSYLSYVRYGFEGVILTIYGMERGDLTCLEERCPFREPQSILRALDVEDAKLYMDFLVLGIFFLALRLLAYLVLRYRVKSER

cyclosporin A
effect on ABCG1 ATPase activity (in words) (human ABCG1): inhibited ABCG1 ATPase activity at low concentrations

COc1ccc2c3c([nH]c2c1)[C@H](CC(C)C)N1C(=O)[C@H](CCC(=O)OC(C)(C)C)NC(=O)[C@@H]1C3 [Ko143]
effect on ABCG1 ATPase activity (in words) (human ABCG1): no effect

Nc1ncnc2c1ncn2[C@@H]1O[C@H](COP(=O)(O)OP(=O)(O)OP(=O)(O)O)[C@@H](O)[C@H]1O [ATP]
Km (human ABCG1; with or without 100 μM rhodamine123, read-out: Km for ATP): ~500 µM | Km (ABCG2R482G; read-out: Km for ATP): ~600 µM

rhodamine123
increase of ATPase activity of ABCG1 (human ABCG1; 20 μM rhodamine123): increased almost two fold | rhodamine123 stimulated ATPase activity (human ABCG1; ABCG1 co-expressed with β-Gal, 100 μM rhodamine123, units = nanomoles Pi/mg membrane protein/min, basal 19.2±1.24, SEM, n=3): 33.6±0.65 units | effect on ABCG1 ATPase activity (in words) (human ABCG1): substantially stimulate | EC50 (human ABCG1; stimulation of ABCG1 ATPase activity, read-out: Kact): ~10 µM | effect on ABCG1K124M ATPase activity (in words) (ABCG1K124M): negligible | stimulation of ABCG2R482G mutant ATPase activity (ABCG2R482G): about 1.4 fold | effect on ABCG4 ATPase activity (in words) (human ABCG4): no effect

NC(=NCc1ccccc1)NC(=O)c1nc(Cl)c(N)nc1N [Benzamil, benzamil]
Ki (human ABCG1; inhibition of ABCG1 ATPase activity): ~0.5 µM

Nc1c(O)cccc1C(=O)C[C@H](N)C(=O)O [3-OH kynurenine, 3-OH-kynurenine]
effect on ABCG1 ATPase activity (in words) (human ABCG1): could not detect a change in activity | effect on ATPase activity of co-expressed ABCG1/ABCG4 (in words) (ABCG1/ABCG4): could not detect a change in activity | effect on ABCG4 ATPase activity (in words) (human ABCG4): could not detect a change in activity

N[C@@H](Cc1cc(I)c(Oc2cc(I)c(O)c(I)c2)c(I)c1)C(=O)O [L-thyroxine]
effect on ABCG1 ATPase activity (in words) (human ABCG1): inhibited ABCG1
